Assay results from patent US11471537B2, “Oligomer extended insulin-Fc conjugates” (Novo Nordisk A/S, priority 2017, dated 2022).

What was measured:
Sprague-Dawley rats = test: PD studies: blood glucose after subcutaneous dosing; type: in vivo; conditions: sc
Experimental: The pharmacodynamic effect of the Insulin Fc conjugates of the examples were investigated in normal male Sprague-Dawley rats weighing approx. 350 g at study start.
Animals had free access to food and water during the experiment period. They were dosed subcutaneously in the neck region with a dose of 30 nmol/kg (unless otherwise stated in the figures below). Blood samples for blood glucose and plasma insulin analysis were collected from the tongue veins up to 10 days post dosing. Blood glucose was measured using Biosen S Line (EKF).

isolated rat adipocytes = test: Insulin-stimulated lipogenesis; type: cell-based; conditions: 1% HSA; relative to the activity of human insulin (100%)
Experimental: Insulin-stimulated lipogenesis was measured in isolated rat adipocytes in presence of 1% HSA as described in Moody A J, Stan M A, Stan M, Gliemann J. A Simple Free Fat Cell Bioassay for Insulin. Hormone And Metabolic Research. 1974; 6(1):12-6, see results in Table 6.

insulin receptor A = insulin receptor A (Homo sapiens, UniProt P06213); test: Insulin receptor affinity; type: binding; conditions: relative to affinity of human insulin for insulin receptor A (100%)
Sequence of insulin receptor A (P06213 28-1370 isoform P06213-2 limits assumed): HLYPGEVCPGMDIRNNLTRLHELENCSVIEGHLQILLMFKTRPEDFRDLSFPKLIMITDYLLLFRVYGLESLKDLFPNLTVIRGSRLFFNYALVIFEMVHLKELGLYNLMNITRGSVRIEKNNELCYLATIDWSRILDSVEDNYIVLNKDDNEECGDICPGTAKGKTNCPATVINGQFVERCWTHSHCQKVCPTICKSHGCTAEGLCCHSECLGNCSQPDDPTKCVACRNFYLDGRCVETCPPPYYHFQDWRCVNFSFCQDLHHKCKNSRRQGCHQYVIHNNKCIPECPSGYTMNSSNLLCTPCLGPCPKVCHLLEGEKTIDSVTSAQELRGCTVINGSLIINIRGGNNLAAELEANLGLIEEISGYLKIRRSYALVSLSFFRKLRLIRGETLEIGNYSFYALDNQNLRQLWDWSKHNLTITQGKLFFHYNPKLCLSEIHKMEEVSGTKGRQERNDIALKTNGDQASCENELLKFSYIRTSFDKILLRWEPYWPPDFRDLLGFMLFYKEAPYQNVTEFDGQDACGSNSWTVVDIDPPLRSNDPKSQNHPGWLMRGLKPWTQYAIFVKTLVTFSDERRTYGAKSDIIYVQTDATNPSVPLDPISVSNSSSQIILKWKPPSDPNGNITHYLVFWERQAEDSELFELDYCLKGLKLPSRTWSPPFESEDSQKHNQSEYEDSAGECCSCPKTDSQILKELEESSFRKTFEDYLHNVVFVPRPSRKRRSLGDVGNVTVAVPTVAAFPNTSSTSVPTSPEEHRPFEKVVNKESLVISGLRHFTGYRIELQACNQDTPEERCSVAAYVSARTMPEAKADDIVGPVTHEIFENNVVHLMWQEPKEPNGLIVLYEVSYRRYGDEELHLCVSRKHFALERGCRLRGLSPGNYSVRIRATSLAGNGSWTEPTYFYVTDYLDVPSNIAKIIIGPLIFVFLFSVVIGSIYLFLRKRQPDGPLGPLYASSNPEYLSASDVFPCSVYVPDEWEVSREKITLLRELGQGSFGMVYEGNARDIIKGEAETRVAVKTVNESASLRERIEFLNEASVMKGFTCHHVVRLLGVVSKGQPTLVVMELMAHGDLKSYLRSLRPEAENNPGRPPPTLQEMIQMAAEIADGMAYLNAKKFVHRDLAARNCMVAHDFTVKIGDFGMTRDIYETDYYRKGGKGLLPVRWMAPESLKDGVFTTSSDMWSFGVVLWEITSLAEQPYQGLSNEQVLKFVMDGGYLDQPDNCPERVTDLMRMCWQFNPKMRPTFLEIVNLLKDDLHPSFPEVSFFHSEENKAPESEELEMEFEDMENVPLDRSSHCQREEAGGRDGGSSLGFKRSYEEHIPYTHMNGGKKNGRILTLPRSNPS
Sequence of insulin receptor A (P06213 763-1382 partner limits assumed): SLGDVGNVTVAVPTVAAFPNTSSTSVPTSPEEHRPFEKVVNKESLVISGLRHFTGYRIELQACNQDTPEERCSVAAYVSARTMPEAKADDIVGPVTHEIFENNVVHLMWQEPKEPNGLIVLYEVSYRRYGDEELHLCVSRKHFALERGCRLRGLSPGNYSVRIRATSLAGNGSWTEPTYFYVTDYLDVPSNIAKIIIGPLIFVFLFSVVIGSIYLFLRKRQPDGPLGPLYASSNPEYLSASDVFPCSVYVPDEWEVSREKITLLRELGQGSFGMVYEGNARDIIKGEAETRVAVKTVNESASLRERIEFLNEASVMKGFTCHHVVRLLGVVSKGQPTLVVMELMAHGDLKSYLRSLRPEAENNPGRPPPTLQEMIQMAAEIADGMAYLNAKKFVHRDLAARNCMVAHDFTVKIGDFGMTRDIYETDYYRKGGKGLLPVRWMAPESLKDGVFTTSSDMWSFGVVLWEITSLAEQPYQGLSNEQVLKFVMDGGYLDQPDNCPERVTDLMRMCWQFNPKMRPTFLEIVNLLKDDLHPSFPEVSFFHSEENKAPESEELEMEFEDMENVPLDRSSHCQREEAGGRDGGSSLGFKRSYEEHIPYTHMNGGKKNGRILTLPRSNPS

[1] = dose 30 nmol/kg, time 0.041667 days
[2] = dose 30 nmol/kg, time 0.125 days
[3] = dose 30 nmol/kg, time 0.291667 days
[4] = dose 30 nmol/kg, time 0.208333 days

| Substance | Lipogenesis in rat adipocytes [Potency (%)] Mean Value (isolated rat adipocytes) [%] | Insulin receptor affinity [IC50 relative to HI (%)] Mean Value (insulin receptor A) [%] | Average blood glucose (Sprague-Dawley rats; dose 30 nmol/kg, time 0 days) [mM] | Average blood glucose (Sprague-Dawley rats; [1]) [mM] | Average blood glucose (Sprague-Dawley rats; [2]) [mM] | Average blood glucose (Sprague-Dawley rats; [3]) [mM] | Average blood glucose (Sprague-Dawley rats; dose 30 nmol/kg, time 1 day) [mM] | Average blood glucose (Sprague-Dawley rats; dose 30 nmol/kg, time 2 days) [mM] | Average blood glucose (Sprague-Dawley rats; dose 30 nmol/kg, time 3 days) [mM] | Average blood glucose (Sprague-Dawley rats; dose 30 nmol/kg, time 4 days) [mM] | Average blood glucose (Sprague-Dawley rats; dose 30 nmol/kg, time 6 days) [mM] | Average blood glucose (Sprague-Dawley rats; dose 30 nmol/kg, time 7 days) [mM] | Average blood glucose (Sprague-Dawley rats; dose 30 nmol/kg, time 8 days) [mM] | Average blood glucose (Sprague-Dawley rats; dose 30 nmol/kg, time 5 days) [mM] | further results |
| --- | --- | --- | --- | --- | --- | --- | --- | --- | --- | --- | --- | --- | --- | --- | --- |
| insulin degludec [reference compound] | – | – | – | – | – | – | – | – | – | – | – | – | – | – | time over which blood glucose was lowered (Sprague-Dawley rats; 3-fold higher dose (90 nmol/kg)): less than half a day; Average blood glucose (Sprague-Dawley rats; dose 90 nmol/kg, time 0 days): 5.382 mM; Average blood glucose (Sprague-Dawley rats; dose 90 nmol/kg, time 0.020833 days): 4.104 mM; Average blood glucose (Sprague-Dawley rats; dose 90 nmol/kg, time 0.041667 days): 3.182 mM; Average blood glucose (Sprague-Dawley rats; dose 90 nmol/kg, time 0.083333 days): 2.718 mM; Average blood glucose (Sprague-Dawley rats; dose 90 nmol/kg, time 0.166667 days): 2.336 mM; Average blood glucose (Sprague-Dawley rats; dose 90 nmol/kg, time 0.25 days): 3.424 mM; Average blood glucose (Sprague-Dawley rats; dose 90 nmol/kg, time 0.3336 days): 4.292 mM; Average blood glucose (Sprague-Dawley rats; dose 90 nmol/kg, time 0.5 days): 5.302 mM; Average blood glucose (Sprague-Dawley rats; dose 90 nmol/kg, time 1 day): 5.758 mM |
| (A14E, A21G, A22(GQAP)18, A94G, A95Q, A96A, A97K^, A98P, B16E, B25H, B29R, desB30 human insulin)/(227A, 234A, 235K, 297E, 315Q, 384Q, des447 hIgG4-Fc(228-447))4-[bis[2-[(2-acetyl)amino]ethyl]amino]-4-oxo-butanoyl Conjugate [Example 5.31] | 0.60 | 0.47 | – | – | – | – | – | – | – | – | – | – | – | – | – |
| A14E, A21G, A22(GQEP)6, A46K^, A47P, B25H, B29R, desB30 human insulin/(227A, 234A, 235K, 297E, 315Q, 384Q, des447 hIgG4-Fc(228-447))4-[bis[2-[(2-acetyl)amino]ethyl]amino]-4-oxo-butanoyl Conjugate [Example 5.32] | 3.72 | 2.16 | – | – | – | – | – | – | – | – | – | – | – | – | – |
| (A14E, A21G, A22(GQEP)19, A98K^, A99P, B25H, B29R, desB30 human insulin)/(227A, 234A, 235K hIgG4-Fc(228-447))4-[bis[2-[(2-acetyl)amino]ethyl]amino]-4-oxo-butanoyl Conjugate [Example 5.1] | 6.69 | 5.07 | 6.68 | 5.888 | 4.988 | 3.752 | 2.524 | 2.036 | 2.964 | 3.244 | 6.508 | 6.18 | 5.996 | – | – |
| A14E, A21G, A22(GQAPGQAPGQEP)6-GQAP, A98K^, A99P, B3Q, B25H, B29R, desB30 human insulin/(227A, 234A, 235K, 297E, 315Q, 384Q, des447 hIgG4-Fc(228-447))4-[bis[2-[(2-acetyl)amino]ethyl]carbamoylamino]butanoyl Conjugate [Example 5.24] | 3.83 | 4.60 | 5.604 | 5.98 | 5.172 | 4.164 | 2.924 | 3.128 | 3.352 | 6.272 | 5.824 | 6.092 | 6.016 | 5.788 | Average blood glucose (Sprague-Dawley rats; dose 30 nmol/kg, time 9 days): 5.872 mM; Average blood glucose (Sprague-Dawley rats; dose 30 nmol/kg, time 10 days): 6.072 mM |
| A14E, A21G, A22(GQEP)6, A46K^, A47P, B25H, B29R, desB30 human insulin/(227A, 234A, 235K hIgG4-Fc(228-447))4-[bis[2-[(2-acetyl)amino]ethyl]amino]-4-oxo-butanoyl Conjugate [Example 5.7] | 1.88 | 2.43 | 5.918 | 5.682 | 4.502 | 3.428 | 2.758 | 2.15 | 2.3 | 2.81 | 6.702 | 6.518 | 6.33 | 4.404 | Average blood glucose (Sprague-Dawley rats; [4]): 3.974 mM |
| (A14A, A21G, A22(GQAP)18, A94G, A95Q, A96A, A97K^, A98P, B29R, desB30 human insulin)/(227A, 234A, 235K, 297E, 315Q, 384Q, des447 hIgG4-Fc(228-447))4-[bis[2-[(2-acetyl)amino]ethyl]amino]-4-oxo-butanoyl Conjugate [Example 5.25] | 2.08 | 4.49 | 5.724 | 6.104 | 4.9 | 4.032 | 3.28 | 3.864 | 6.224 | 5.976 | 6.496 | 6.14 | 6.452 | 6.036 | Average blood glucose (Sprague-Dawley rats; dose 30 nmol/kg, time 9 days): 6.528 mM; Average blood glucose (Sprague-Dawley rats; dose 30 nmol/kg, time 10 days): 6.144 mM |
| A14E, A21G, A22(GQEP)19, A98K^, A99P, B3Q, B25H, B29R, desB30 human insulin/(227A, 234A, 235K hIgG4-Fc(228-447))4-[bis[2-[(2-acetyl)amino]ethyl]amino]-4-oxo-butanoyl Conjugate [Example 5.6] | – | 5.07 | 6.46 | 6.024 | 5.092 | 3.90 | 2.808 | 2.464 | 2.996 | 2.996 | 5.98 | 5.82 | 6.012 | – | – |
| A14E, A21G, A22(GQAPGQAPGQEP)6-GQAP, A98K^, A99P, B3Q, B25H, B29R, desB30 human insulin/(227A, 234A, 235K hIgG4-Fc(228-447))4-[bis[2-[(2-acetyl)amino]ethyl]amino]-4-oxo-butanoyl Conjugate [Example 5.5] | 2.21 | 3.34 | 5.266 | 5.276 | 4.894 | 4.358 | 3.106 | 2.33 | 2.786 | 4.764 | 6.016 | 5.76 | 5.794 | 5.842 | Average blood glucose (Sprague-Dawley rats; [4]): 4.422 mM |
| (A14E, A21G, A22(GQAP)24, A118G, A119Q, A120A, A121K^, A122P, B25H, B29R, desB30 human insulin)/(227A, 234A, 235K, 297E, 315Q, 3840, des447 hIgG4-Fc(228-447))3,5-bis[(2-acetyl)amino]benzoyl Conjugate [Example 5.22] | 4.64 | 3.56 | – | – | – | – | – | – | – | – | – | – | – | – | – |
| A14E, A21G, A22(GQAPGQAPGQAPGQEP)6-GQAP, A122K^, A123P, B25H, B29R, desB30 human insulin/(227A, 234A, 235K, 297E, 315Q, 384Q, des447 hIgG4-Fc(228-447))4-[bis[2-[(2-acetyl)amino]ethyl]amino]-4-oxo-butanoyl Conjugate [Example 5.20] | 5.41 | 5.49 | – | – | – | – | – | – | – | – | – | – | – | – | – |
| A14E, A21G, A22(GQEP)3, A34G, A350, A36E, A37K^, A38P, B25H, B29R, desB30 human insulin/(227A, 234A, 235K hIgG4-Fc(228-447))4-[bis[2-[(2-acetyl)amino]ethyl]amino]-4-oxo-butanoyl Conjugate [Example 5.10] | – | 2.47 | – | – | – | – | – | – | – | – | – | – | – | – | – |
| (A14E, A21G, A22(GQAP)24, A118G, A119Q, A120A, A121K^, A122P, B29R, desB30 human insulin)/(227A, 234A, 235K, 297E, 315Q, 384Q, des447 hIgG4-Fc(228-447))3,5-bis[(2-acetyl)amino]benzoyl Conjugate [Example 5.29] | 2.64 | 3.06 | – | – | – | – | – | – | – | – | – | – | – | – | – |
